{
  "source": "paper PMC11053914",
  "about": "(Viruses, 2024)",
  "key": {"[1]": {"tested_on": "A3G (Vif-mediated degradation)", "test": "A3G level in the presence of Vif by Western blotting in HEK293T cells", "assay_type": "cell-based, human", "settings": "proteasome inhibitor positive control; A3G without Vif = 100%, Vif alone 31%"}, "[2]": {"tested_on": "HIV-1 NL4-3 packaged with A3G", "assay_type": "cell-based", "settings": "peptides at 25, 50 or 100 μM; DMSO group set to 100%; TZM-bl read-out"}, "[3]": {"tested_on": "CEM-SS cells", "test": "Cytotoxicity assay (CellTiter-Glo) in CEM-SS cells", "assay_type": "cell-based", "settings": "2-fold dilutions from 100 μM, 48 h, DMSO group = 100%"}, "[4]": {"tested_on": "CEM-SS cells", "test": "Growth of infected CEM-SS cells, trypan blue staining", "assay_type": "cell-based", "settings": "infected cells with 50 μM peptide, trypan blue staining every other day"}, "[5]": {"tested_on": "CEM cells", "test": "Growth of infected CEM cells, trypan blue staining", "assay_type": "cell-based", "settings": "infected cells with 50 μM peptide, trypan blue staining every other day"}, "[6]": {"tested_on": "CEM cells", "test": "Cytotoxicity assay (CellTiter-Glo) in CEM cells", "assay_type": "cell-based", "settings": "2-fold dilutions from 100 μM, 48 h, DMSO group = 100%"}, "[7]": {"biological_target": "wild-type (WT) Vif displayed on yeast cells (HIV-1) (UniProt P69723)", "sequence (P69723 whole entry)": "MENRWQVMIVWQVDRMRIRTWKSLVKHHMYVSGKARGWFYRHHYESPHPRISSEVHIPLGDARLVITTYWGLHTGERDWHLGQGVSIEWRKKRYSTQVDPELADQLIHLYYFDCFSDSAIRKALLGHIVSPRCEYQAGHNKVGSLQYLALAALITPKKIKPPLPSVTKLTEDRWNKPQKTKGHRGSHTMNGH", "test": "flow cytometry on cells"}},
  "note": "Peptide text beside a SMILES is read from it. * marks the point of attachment. Cbz = O=C(OCc1ccccc1)*",
  "data": [
    {"compound": "CC(C)C[C@@H](C=O)NC(=O)[C@H](CC(C)C)NC(=O)[C@H](CC(C)C)NC(=O)OCc1ccccc1", "note": "[MG132] (Cbz-Leu-Leu-Leu-aldehyde)", "values": [
      {"measurement": "A3G level in the presence of Vif", "setting": "[1]", "value": 73, "unit": "%"}
    ]},
    {"compound": "CC[C@H](C)[C@H](NC(=O)[C@H](CCSC)NC(=O)[C@@H](NC(=O)[C@H](CCC(=O)O)NC(C)=O)C(C)C)C(=O)N[C@H](C(=O)N[C@@H](Cc1c[nH]c2ccccc12)C(=O)N[C@@H](CCC(=O)O)C(=O)N[C@H](C(=O)N[C@@H](CC(=O)O)C(=O)N[C@@H](CCCNC(=N)N)C(=O)N[C@@H](CCSC)C(=O)N[C@@H](CCCNC(=N)N)C(=O)N[C@H](C(=O)N[C@H](C(=O)N[C@H](C(N)=O)[C@@H](C)O)[C@@H](C)O)[C@@H](C)CC)C(C)C)C(C)C", "note": "[VMP-6] (Ac-EVMIVWEVDRMRITT-NH2)", "values": [
      {"measurement": "effect on infectivity of the A3G-containing viruses", "setting": "[2]", "value": "did not affect the viral infectivity"}
    ]},
    {"compound": "CC[C@H](C)[C@H](NC(=O)[C@H](C)NC(=O)[C@H](CC(C)C)NC(=O)CNC(C)=O)C(=O)N[C@H](C(=O)N[C@H](C(=O)N[C@@H](Cc1ccc(O)cc1)C(=O)N[C@@H](Cc1c[nH]c2ccccc12)C(=O)NCC(=O)N[C@@H](CC(C)C)C(=O)N[C@@H](Cc1c[nH]cn1)C(=O)N[C@H](C(=O)NCC(=O)N[C@@H](CCC(=O)O)C(=O)N[C@@H](CCCNC(=N)N)C(=O)NCC(N)=O)[C@@H](C)O)[C@@H](C)O)[C@@H](C)O", "note": "[VMP-63]", "values": [
      {"measurement": "cytotoxicity on CEM-SS cells", "setting": "[3]", "value": "almost no cytotoxicity"},
      {"measurement": "growth of CEM-SS cells", "setting": "[4]", "value": "not affected"},
      {"measurement": "growth of CEM cells", "setting": "[5]", "value": "not affected"},
      {"measurement": "cytotoxicity on CEM cells", "setting": "[6]", "value": "almost no cytotoxicity"}
    ]},
    {"compound": "CC(=O)N[C@@H](Cc1c[nH]c2ccccc12)C(=O)NCC(=O)N[C@@H](CC(C)C)C(=O)N[C@@H](Cc1c[nH]cn1)C(=O)N[C@H](C(=O)NCC(=O)N[C@@H](CCC(=O)O)C(=O)N[C@@H](CCCNC(=N)N)C(=O)NCC(N)=O)[C@@H](C)O", "note": "[VMP-70] (Ac-WGLHTGERG-NH2)", "values": [
      {"measurement": "effect on infectivity of the A3G-containing viruses", "setting": "[2]", "value": "did not affect the viral infectivity"}
    ]},
    {"compound": "CC[C@H](C)[C@H](NC(=O)[C@H](C)NC(=O)[C@H](CO)NC(=O)[C@H](CC(N)=O)NC(=O)[C@H](CO)NC(=O)[C@H](Cc1ccccc1)NC(=O)[C@H](CS)NC(=O)[C@H](CC(=O)O)NC(=O)[C@H](Cc1ccccc1)NC(=O)[C@H](Cc1ccc(O)cc1)NC(=O)[C@H](Cc1ccc(O)cc1)NC(=O)[C@H](CC(C)C)NC(=O)[C@H](CCCNC(=N)N)NC(C)=O)C(N)=O", "note": "[VMP-108]", "values": [
      {"measurement": "cytotoxicity on CEM-SS cells", "setting": "[3]", "value": "almost no cytotoxicity"},
      {"measurement": "growth of CEM-SS cells", "setting": "[4]", "value": "not affected"},
      {"measurement": "growth of CEM cells", "setting": "[5]", "value": "not affected"},
      {"measurement": "cytotoxicity on CEM cells", "setting": "[6]", "value": "almost no cytotoxicity"}
    ]},
    {"compound": "CC(=O)N[C@@H](Cc1ccc(O)cc1)C(=O)N[C@@H](Cc1ccccc1)C(=O)N[C@@H](CC(=O)O)C(=O)N[C@@H](CS)C(=O)N[C@@H](Cc1ccccc1)C(=O)N[C@@H](CO)C(=O)N[C@@H](CC(N)=O)C(=O)N[C@@H](CO)C(=O)N[C@@H](C)C(=O)N[C@H](C(=O)N[C@@H](CCCNC(=N)N)C(=O)N[C@@H](CCCCN)C(=O)N[C@H](C(N)=O)C(C)C)[C@@H](C)O", "note": "[VMP-111] (Ac-YFDCFSNSATRKV-NH2)", "values": [
      {"measurement": "effect on infectivity of the A3G-containing viruses", "setting": "[2]", "value": "did not affect the viral infectivity"}
    ]},
    {"compound": "CBFβ protein, purified (from UniProt Q13951 1-182) (natural protein)", "values": [
      {"measurement": "FITC-positive cells", "setting": "[7]", "value": 0.076, "unit": "%"}
    ]}
  ]
}
